# In US20150284347A1, “NEW BENZENE SULFONAMIDE THIAZOLE COMPOUNDS” (INSERM (INSTITUT NATIONAL DE LA SANTÉ ET DE LA RECHERCHE …, priority 2012, published 2015):
# What was measured:
# A375 melanoma cells = test: A375 melanoma xenograft tumor development in nude mice; type: in vivo; settings: 0.7 mg/mouse/day over 24 days, athymic nude mice
# Procedure: To assess a potential antineoplastic effect of (HA15) and (SR50) in vivo, A375 melanoma cells (2.5×10^6) were injected subcutaneously in 6-week-old female athymic nude mice and treated 5 days later by injection of vehicle (labrafil) or different compounds such as PLX4032, (HA15) and (SR50) (0.7 mg/mouse/day) over a period of 24 days. Inhibitory effect is expressed as the tumor volume (mm^3) on day 8, 11, 15, 18, 22 and 24.
# Athymic BALB/C nu/nu mice (Harlan) were used. The animals were 6 weeks old and weighed between 20 and 25 g. The mice were housed in the animal's C3M in a 12 h/12 h cycle. The animals received water and food ad libitum. Mice were first acclimated for one week and then injected with A375 cells (2.5 million cells in 200 μl of PBS) subcutaneously into the right and left sides. Treatment was started eight days after injection of cancer cells (when tumors were visible). The various compounds were diluted in a mixture of Labrafil (90%) (Gattefosse), Tween 80 (1%) and N,N-Dimethylacetamide (9%). Five groups of six mice treated every day intraperitoneally with 0.7 mg/day of PLX4032, SR44 (HA15), SR47 (HA32), SR50 (JG25) or with the mixture of Labrafil in control were defined. Three times a week the tumor size was measured using a caliper. […]
# breast cells MCF7 = test: Trypan blue cell viability, MCF7; type: cell-based; settings: 10 μM, MCF7, trypan blue exclusion, FIG. 1
# Procedure: Cell viability was assessed by measuring the number of cells alive in samples of two different kind of prostate cells, respectively noted LNCAP and PC3, of breast cells noted MCF7, of colon cells noted HT29, of metastatic melanoma cell lines A375 and of melanoma cells from patients noted GIC. The measure of cell viability as performed by cell counting using the trypan blue exclusion method. Results were expressed as the percentage of cells alive relatively to the number of living cells in the presence of DMSO, which corresponds to the negative control associated to the 100% value. Cells were seeded in 6-well plates (60000 cells/well), depleted and incubated with compounds for the times indicated. Then cells were detached in the presence of 2000 of […] (Thermo) and 2 ml of RPMI 1640 Glutamax (Gibco) was added to the cell solution. 100 of this solution was stained for 1 minute with 100 of 0.4% trypan blue before counting with a Malassez chamber. The effect of compound on cell viability was studied on different types of cells. […] Cancer cells from prostate, breast, colon and melanoma A375 came from cell lines cultures. […] Results are expressed as percentage of cells alive relatively to the number of living cells in the presence of DMSO, which corresponds to the negative control associated to the 100% value. […]
# [1] = test system: metastatic melanoma cell line A375; test: Trypan blue cell viability, A375; type: cell-based; settings: 10 μM, A375, trypan blue exclusion, FIG. 1
# [2] = test system: melanoma cells from patients GIC; test: Trypan blue cell viability, patient melanoma cells GIC; type: cell-based, human; settings: 10 μM, trypan blue exclusion, FIG. 1
# Procedure: Cell viability was assessed by measuring the number of cells alive in samples of two different kind of prostate cells, respectively noted LNCAP and PC3, of breast cells noted MCF7, of colon cells noted HT29, of metastatic melanoma cell lines A375 and of melanoma cells from patients noted GIC. The measure of cell viability as performed by cell counting using the trypan blue exclusion method. Results were expressed as the percentage of cells alive relatively to the number of living cells in the presence of DMSO, which corresponds to the negative control associated to the 100% value. Patient melanoma cells were prepared from biopsy after digestion for 1-2 h with collagenase A (0.33 U/ml), dispase (0.85 U/ml) and Dnase I (144 U/ml) at 37° C. Large debris were removed by filtration through a […] cell strainer. Cells were seeded in 6-well plates (60000 cells/well), depleted and incubated with compounds for the times indicated. Then cells were detached in the presence of 2000 of […] (Thermo) and 2 ml of RPMI 1640 Glutamax (Gibco) was added to the cell solution. 100 of this solution was stained for 1 minute with 100 of 0.4% trypan blue before counting with a Malassez chamber. […] Results are expressed as percentage of cells alive relatively to the number of living cells in the presence of DMSO, which corresponds to the negative control associated to the 100% value. […]
smiles,measurement,setting,value
"CC(=O)Nc1nc(-c2cccc(NS(=O)(=O)c3cccc4c(N(C)C)cccc34)c2)cs1 [HA15, N-(4-(3-(5-(dimethylamino)naphthalene-1-sulfonamido)phenyl)thiazol-2-yl)acetamide]",ability of cells to develop visible tumors,A375 melanoma cells,markedly attenuated
same,cell viability (cells alive relative to DMSO),breast cells MCF7,viability greatly reduced
same,cell viability (cells alive relative to DMSO),[1],viability greatly reduced
same,cell viability (cells alive relative to DMSO),[2],viability greatly reduced
